The target of one series is T1, SA-647 (Streptomyces avidinii, UniProt P22629).
T1 construct: purchased ThermoFisher S3235
Briefly: Dose-dependent binding of SA-647 to bead-displayed ligands by FACS (MFI). The following applies: SA-647 0.1 to 1000 nM. On the procedure: We next asked if the bead binding assay could distinguish complexes with different affinities for SA. 10 μm TentaGel beads displaying compound 2, compound 3, the oxazole analogue of compound 2 (Figure S4), or the SA-binding macrocycle 1 shown in Figure a were exposed to different concentrations of SA-647 ranging from 0.1 to 1000 nM. After washing, the intensity of fluorescence retained on the beads was measured using a flow cytometer, and the results were plotted as the mean fluorescence intensity (MFI) on the beads vs the protein concentration. […] Macrocycle 1, which binds SA with a K D of about 600 nM in solution (more than 1000 times more tightly than compound 2), binds SA-647 on resin at far lower concentrations than does compound 2.
(In general: A flow cytometer gives signals particle by particle.)

For series [1], the target named is SA. The following applies: in solution; cited from earlier work.
Series [2] has as its system SA. Briefly: Affinity of macrocycle 1 for SA in solution. The series is classed as binding. The following applies: KD in solution against KD of compound 2.
Series [3] addresses T2, Rpn2-binding surface of Rpn13 (GST-Rpn13 PRU) (Homo sapiens, UniProt Q16186).
T2 construct: the human Rpn13 PRU (pleckstrin-like receptor for ubiquitin) domain is linked to the C-terminus of GST; His6 (C); made in house; host or cells: E. coli BL21 (DE3) codon plus RP
Briefly: Competition assay with Rpn2 peptide for GST-Rpn13 PRU fusion protein. The following applies: protein preincubated with Rpn2 peptide 100 μM. On the procedure: As mentioned above, the Rpn13 PRU domain binds to the proteasome via association with a C-terminal peptide tail from Rpn2. […] The amount of protein retained on the resin was then evaluated using the same protocol described above.
This assay was conducted following the exact same procedure described above using two samples: GST-Rpn13 PRU (100 nM) alone, and GST-Rpn13 PRU (100 nM) that had been pretreated with Rpn2 peptide (100 μM) for 1 h at 4 °C. Each sample was added to separate wells of a microtiter plate.

The next series has as its system Rpn13. The following applies: peptide derived from Rpn2; cited from earlier work.

Non-standard residues stand in square brackets, D forms with d. Residues, ends and D or L forms follow the SMILES beside them.

What is called Kd is the concentration at which binding is half-saturated.

T1 sequence (P22629 37-163 limits assumed): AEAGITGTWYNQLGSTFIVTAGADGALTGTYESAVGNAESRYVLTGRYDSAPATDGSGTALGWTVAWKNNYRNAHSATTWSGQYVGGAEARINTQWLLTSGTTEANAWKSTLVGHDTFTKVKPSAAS
T2 sequence (Q16186 18-131 limits assumed): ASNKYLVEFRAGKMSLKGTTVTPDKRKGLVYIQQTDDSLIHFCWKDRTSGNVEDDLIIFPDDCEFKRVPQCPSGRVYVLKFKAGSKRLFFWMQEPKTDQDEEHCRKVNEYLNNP

Turning to `NC(=O)[C@H]1CSCc2cccc(c2)C(=O)N(Cc2cccnc2)Cc2nc(cs2)C(=O)N(Cc2ccc(F)c(F)c2)Cc2nc(co2)C(=O)N1` [Compound 1], the “dose-dependent binding of SA-647 (MFI by flow cytometer)” value on SA-647 is recorded as “dose-dependent binding”. Besides, the Kd at SA [1] was approximately 600 nM. Moreover, the “tighter binding to SA than compound 2” value in the series on SA [2] is “more than 1000 times”.
`CC[C@H](C)[C@H](NC(=O)[C@H](Cc1ccc(O)cc1)NC(=O)[C@@H](CCC(=O)O)NC(=O)[C@H](Cc1ccccc1)NC(=O)[C@@H]1CCCN1C(=O)[C@H](CCC(=O)O)NC(=O)[C@@H]1CCCN1C(=O)[C@@H]1CCCN1C(=O)[C@H](CCC(=O)O)NC(=O)[C@@H]1CCCN1C(=O)[C@@H](CCC(=O)O)NC(=O)[C@H](CCC(N)=O)NC(=O)[C@@H]1CCCN1)C(=O)N[C@@H](CC(=O)O)C(N)=O` [Rpn2 peptide, reference compound] (H-PQ[dE]PEPPEPF[dE]YID-NH2): the “effect of soluble Rpn2 peptide competitor on binding of GST-Rpn13 PRU” value in series [3] was “strongly suppressed binding”. In addition, the “affinity for Rpn13” value with Rpn13 was “nanomolar affinity”.

The values are drawn from publication PMC12598851, “Exploiting Avidity Effects for the Discovery of Low Affinity Protein-Binding Fragments” (Journal of Medicinal Chemistry, 2025).
